Assays:
[1] = Storage stability of the crystals at 60° C. (remaining activity by HPLC); format: physicochemical
Description: About 500 mg of Compound (1) in a crystalline form obtained in each of Example 1 and Comparative example 1 was weighed out in a glass bottle, and the bottle was tightly sealed. Then, the bottle was left in a constant-temperature room at 60° C. for 8 days.

[2] = stored at 40° C. for 20 days, crystalline form; cited from earlier work
[3] = Particle size distribution of crystals by sieving (JIS Z 8801 / JIS Z 8901); format: physicochemical; conditions: for ratio of weight of crystals, particle size <177 μm: mesh size <177 μm; for ratio of weight of crystals, particle size <350, ≧177 μm: mesh size <350, ≧177 μm; for ratio of weight of crystals, particle size ≧350 μm: mesh size ≧350 μm
Source text: Arbitrarily, 3.0 g of Compound (1) in a crystalline form obtained in each of Example 2, Comparative example 2, Example 3 and Comparative example 3 was taken out. Test sieves with a mesh size in accordance with the Japanese Industrial Standard (JIS Z 8801), having a mesh size of 500 μm, 420 μm, 350 μm, 250 μm, 177 μm, 149 μm, 125 μm, 74 μm or 44 μm and an inner diameter of 8 cm, were used, and were shaken by hand in accordance with the measurement procedure of the standard sieving method specified in JIS Z 8901. The results obtained by comparing the particle size distributions between the “crystal of Example 2” and the “crystal of Comparative example 2”, and between the “crystal of Example 3” and the “crystal of Comparative example 3” are shown in Table 3.

[4] = Bulk density of crystals passing a 500 μm sieve (tapped); format: physicochemical; conditions: crystals with particle size 500 μm or less; weight of crystals/volume of crystals after tapping
Description: Arbitrarily, 3.0 g of Compound (1) in a crystalline form obtained in each of Example 1, Comparative example 1, Example 2 and Comparative example 2 was taken out, and was passed through a test sieve with a diameter of 8 cm and a mesh size of 500 μm in accordance with the Japanese Industrial Standard (JIS Z 8801), and the bulk density of the crystals passing through the sieve was measured. […] The bulk density was calculated by using “weight of crystals”/“volume of crystals” as a calculation method.

[5] = Day 1 (set as 100%), crystal in sealed glass bottle at 60° C.
[6] = Day 4, crystal in sealed glass bottle at 60° C.
[7] = Day 6, crystal in sealed glass bottle at 60° C.
[8] = Day 8, crystal in sealed glass bottle at 60° C.

Row | SMILES | decomposition ([1]; storage at 60° C., 8 days, crystal obtained by the same method as Patent document 4) [%] | decomposition on storage [2] | ratio of weight of crystals, particle size <177 μm [3] [%] | ratio of weight of crystals, particle size <350, ≧177 μm [3] [%] | ratio of weight of crystals, particle size ≧350 μm [3] [%] | Bulk Density [4] | remaining activity [1, 5] [%] | remaining activity [1, 6] [%] | remaining activity [1, 7] [%] | remaining activity [1, 8] [%]
1 | C[C@@H](O)[C@H]1C(=O)N2C(C(=O)OCc3ccc([N+](=O)[O-])cc3)=C(OP(=O)(Oc3ccccc3)Oc3ccccc3)[C@H](C)[C@H]12 [Compound (1), p-nitrobenzyl (4R,5R,6S)-1-aza-3-diphenyloxyphosphoryloxy-6-[(1R)-1-hydroxyethyl]-4-methyl-7-oxobicyclo[3.2.0]hept-2-en-2-carboxylate] | 20 | not decomposed | – | – | – | – | – | – | – | –
2 | C[C@@H](O)[C@H]1C(=O)N2C(C(=O)OCc3ccc([N+](=O)[O-])cc3)=C(OP(=O)(Oc3ccccc3)Oc3ccccc3)[C@H](C)[C@H]12 [Comparative example 2, p-nitrobenzyl (4R,5R,6S)-1-aza-3-diphenyloxyphosphoryloxy-6-[(1R)-1-hydroxyethyl]-4-methyl-7-oxobicyclo[3.2.0]hept-2-en-2-carboxylate, reference compound] | – | – | 34 | 47 | 19 | 0.36 | – | – | – | –
3 | C[C@@H](O)[C@H]1C(=O)N2C(C(=O)OCc3ccc([N+](=O)[O-])cc3)=C(OP(=O)(Oc3ccccc3)Oc3ccccc3)[C@H](C)[C@H]12 [Example 3, p-nitrobenzyl (4R,5R,6S)-1-aza-3-diphenyloxyphosphoryloxy-6-[(1R)-1-hydroxyethyl]-4-methyl-7-oxobicyclo[3.2.0]hept-2-en-2-carboxylate] | – | – | 18 | 36 | 46 | – | – | – | – | –
4 | C[C@@H](O)[C@H]1C(=O)N2C(C(=O)OCc3ccc([N+](=O)[O-])cc3)=C(OP(=O)(Oc3ccccc3)Oc3ccccc3)[C@H](C)[C@H]12 [Comparative Example 1, p-nitrobenzyl (4R,5R,6S)-1-aza-3-diphenyloxyphosphoryloxy-6-[(1R)-1-hydroxyethyl]-4-methyl-7-oxobicyclo[3.2.0]hept-2-en-2-carboxylate, reference compound] | – | – | – | – | – | 0.37 | 100 | 96 | 87 | 80
5 | C[C@@H](O)[C@H]1C(=O)N2C(C(=O)OCc3ccc([N+](=O)[O-])cc3)=C(OP(=O)(Oc3ccccc3)Oc3ccccc3)[C@H](C)[C@H]12 [Example 1, p-nitrobenzyl (4R,5R,6S)-1-aza-3-diphenyloxyphosphoryloxy-6-[(1R)-1-hydroxyethyl]-4-methyl-7-oxobicyclo[3.2.0]hept-2-en-2-carboxylate] | – | – | – | – | – | 0.43 | 100 | 97 | 92 | 88
6 | C[C@@H](O)[C@H]1C(=O)N2C(C(=O)OCc3ccc([N+](=O)[O-])cc3)=C(OP(=O)(Oc3ccccc3)Oc3ccccc3)[C@H](C)[C@H]12 [Comparative example 3, p-nitrobenzyl (4R,5R,6S)-1-aza-3-diphenyloxyphosphoryloxy-6-[(1R)-1-hydroxyethyl]-4-methyl-7-oxobicyclo[3.2.0]hept-2-en-2-carboxylate, reference compound] | – | – | 25 | 45 | 30 | – | – | – | – | –
7 | C[C@@H](O)[C@H]1C(=O)N2C(C(=O)OCc3ccc([N+](=O)[O-])cc3)=C(OP(=O)(Oc3ccccc3)Oc3ccccc3)[C@H](C)[C@H]12 [Example 2, p-nitrobenzyl (4R,5R,6S)-1-aza-3-diphenyloxyphosphoryloxy-6-[(1R)-1-hydroxyethyl]-4-methyl-7-oxobicyclo[3.2.0]hept-2-en-2-carboxylate] | – | – | 10 | 41 | 49 | 0.40 | – | – | – | –
